{
  "source": "patent US12594278B2",
  "about": "“Method for treatment of muscular dystrophy” (CHILDREN'S NATIONAL MEDICAL CENTER, priority 2019, dated 2026)",
  "key": {"[1]": {"test_system": "cultured adipogenic precursors and WT mouse FAPs", "conditions": "previously shown; cited from earlier work"}, "mdx mice": {"test_system": "mdx mice", "conditions": "previously shown; cited from earlier work"}, "B6A/J mice [2]": {"test_system": "B6A/J mice", "test": "10-week batimastat treatment of 12Mo B6A/J mice, gastrocnemius histopathology", "assay_type": "in vivo, mouse", "experimental": "(§1) Whether this effect of batimastat to repress FAP adipogenesis can improve muscle histopathology was tested in vivo. 12Mo B6A/J mice were treated for 10 weeks with batimastat (2 mg/kg i.p. 3× weekly). […] To determine if this reduction in adipogenic replacement was due to an effect on just FAP differentiation or also on FAP proliferation, FAP accumulation was quantified by PDGFRα labeling and no effect of batimastat treatment on FAP number was found (FIG. 12). […] Thus, inhibition of adipogenesis by batimastat is not due to reduced FAP numbers or improved myofiber repair. To further confirm the ability of batimastat to prevent dysferlinopathic muscle from injury-triggered FAP adipogenesis, we employed the repeat notexin-induced TA injury approach which induces significant adipogenic replacement of the muscle (FIG. 6D and FIG. 6E). […] Given that FAP numbers are unaffected by batimastat treatment, it was examined whether these batimastat treatment causes cells to adopt a fibrogenic fate by blocking their adipogenic differentiation. However, no change in intra-muscular fibrosis was observed as a result of batimastat treatment in either the gastrocnemius or injured TA (FIG. 12). Taken together, the above results both confirm the essential nature of FAP adipogenesis for the adipogenic conversion of dysferlinopathic muscle, and highlight the potential of batimastat to arrest the progressive and even late stage adipogenic replacement of dysferlinopathic muscle.\nImmunohistochemical Analysis of Muscle Sections. Frozen sections 8 μm thick were cut from human biopsies and the midbelly of mouse muscles. Lipid was visualized using an Oil Red O staining kit (American MasterTech, #KTORO) according to manufacturer's instructions. […]\n(§2) Microscopy and Image Analysis. […] Perilipin-1 quantification was performed by thresholding the image to exclude non-specific staining and then calculating the area of each lipid deposit encircled by perlipin-1 (excluding those in the epi- or perimysium) using MetaMorph software (Molecular Devices). The total area encircled by perilipin-1 was calculated for all lipid deposits across the muscle and expressed relative to the total cross-sectional area. PDGFRα and AnxA2 positive area was calculated using CellSens software (Olympus) by thresholding to remove non-specific staining and calculating the total positive area (again, excluding any epi- or perimysial staining) relative to the entire muscle cross-section.\nFor in vivo studies, 12Mo B6A/J mice were treated thrice weekly with batimastat (Sigma-Aldridge, #SML0041), 2 mg/kg i.p. for 10 weeks. At the end of the treatment period, the effect of batimastat on disease pathology was evaluated by quantification of perilipin-1 marked lipid area in the gastrocnemius and compared to untreated controls. […]"}, "B6A/J mice [3]": {"test_system": "B6A/J mice", "test": "Repeat notexin-induced TA injury in batimastat-treated B6A/J mice", "assay_type": "in vivo, mouse", "experimental": "as §1, with “Taken together, the above results both confirm the essential nature of FAP adipogenesis for the adipogenic conversion of dysferlinopathic muscle, and highlight the potential of batimastat to arrest the progressive and even late stage adipogenic replacement of dysferlinopathic muscle.” left out\nas §2, with “cross-section. […]” for “cross-section.”"}, "[4]": {"conditions": "12Mo B6A/J mice, 2 mg/kg i.p. 3× weekly for 10 weeks"}},
  "data": [
    {"compound": "CNC(=O)[C@H](Cc1ccccc1)NC(=O)[C@H](CC(C)C)[C@H](CSc1cccs1)C(=O)NO", "note": "[batimastat]", "values": [
      {"measurement": "adipogenesis of cultured adipogenic precursors and WT mouse FAPs", "setting": "[1]", "value": "restrict adipogenesis"},
      {"measurement": "fibrosis in mdx mice", "setting": "mdx mice", "value": "reduce fibrosis"},
      {"measurement": "muscle function in mdx mice", "setting": "mdx mice", "value": "increase muscle function"},
      {"measurement": "FAP number (PDGFRα labeling) in gastrocnemius", "setting": "B6A/J mice [2]; [4]", "value": "no effect"},
      {"measurement": "extent of myofiber central nucleation", "setting": "B6A/J mice [2]; [4]", "value": "did not decrease"},
      {"measurement": "perilipin-1 labeled area in gastrocnemius", "setting": "B6A/J mice [2]; 12Mo B6A/J mice, 2 mg/kg i.p. 3× weekly for 10 weeks, vs untreated mice", "value": "significantly reduced"},
      {"measurement": "intra-muscular fibrosis in gastrocnemius (Masson's trichrome)", "setting": "B6A/J mice [2]; batimastat 2 mg/kg i.p. 3× weekly for 10 weeks", "value": "no change"},
      {"measurement": "reduction in perilipin-1 positive area in TA following repeat notexin injury", "setting": "B6A/J mice [3]; 3 notexin injuries during 10 weeks of batimastat 2 mg/kg i.p. 3× weekly, vs untreated mice", "value": "~40", "unit": "%"},
      {"measurement": "intra-muscular fibrosis in injured TA (Masson's trichrome)", "setting": "B6A/J mice [3]; 3 repeat notexin injuries, batimastat 2 mg/kg i.p. 3× weekly for 10 weeks", "value": "no change"},
      {"measurement": "FAP accumulation caused by repeat notexin injuries (PDGFRα)", "setting": "B6A/J mice [3]; TA, batimastat 2 mg/kg i.p. 3× weekly for 10 weeks", "value": "did not reduce"}
    ]}
  ]
}
